Reference: patent US10093699B2, “Peptides with antimicrobial, anticancer and/or wound-healing promoting activities, pharmaceutical compositions containing the same, and use of the peptides with antimicrobial, anticancer and/or wound-healing promoting activities” (priority 2015, dated 2018)
Where a SMILES comes first, the peptide text is derived from it. [ ]: non-standard residue; d: D form. 2Nal = N[C@@H](Cc1ccc2ccccc2c1)C(=O)O

Assays:
[1] = tested on: human fibroblast (HFW); test: MTT cytotoxicity to normal fibroblasts; assay type: cell-based; details: MTT assay
Procedure: Human lung cancer line PC9 and A549, oral squamous cell carcinoma cell line OECM-1 were cultured in RPMI medium supplemented with 10% fetal bovine serum and antibiotic. Human tongue carcinoma cell line SAS, oral cancer cell line C9, and human diploid fibroblast (HFW) were cultured in DMEM medium supplemented with 10% fetal bovine serum and antibiotic. Cells were cultured in a humidified incubator containing 5% CO2 at 37° C.
The MTT assay was employed to determine the in vitro cytotoxicity. All cancer cell lines were seeded in 96-well plate with concentration 5000 cells/100 μl/well and incubated for 24 hours. HFW was seeded with 8000 cells/100 μl/well.
After medium was removed, 100 μl fresh medium containing peptide (ranging from 50 μM to 3.13 μM, HFW was treated with 75 μM and 100 μM peptide additionally) was added to the wells. Following 3, 12 or 24 hour incubation, fresh medium with MTT (0.5 mg/ml) was replaced and incubated for 3 hours. After medium/MTT was removed, DMSO was added at 100 μl for dissolving the formazan crystal. Cell survival rate was calculated by measuring the absorbance at 540 nm using Multi-labeled Microplate Reader (VICTOR3). For cancer cells, medium mixed with H2O2 (aq) represented positive control (all cells died) while medium only represented negative control. For normal cells, medium only represented positive control (all cells lived) while medium mixed with H2O2 (aq) represented negative control (all cells died).
The cytotoxicities of S1 and its analogs on human lung cancer cells (i.e, PC9, PC9-G and A549), human oral cancer cells (i.e, C9, OECM-1, and SAS), and human fibroblast (HFW) were evaluated by MTT assay for 3, 12 and 24 hours.

[2] = tested on: PC9 cells; test: Cell live image (phase-contrast and immunofluorescence), PC9; assay type: cell-based, human; details: 12 μM, 5 minutes
Procedure: PC9 and HFW cells (˜10^5 cells) were pre-seeded in 6-cm polystyrene dishes for 24 hours. Cell nuclear is labeled by 4′,6-diamidino-2-phenylindole (DAPI) with a final concentration of 10 μg/ml. After 10 minutes of incubation, the cells were washed by PBS. FITC-K4R2Nal2S1-NH2 was added to the dishes with the final concentration of 12 μM. After incubation for 5, 10, 20 minutes or 1 hour at 37° C., the cells were washed with PBS. The images of FITC-K4R2Nal2S1-NH2 in PC9 cells and HFW cells were observed using the Inverted Fluorescent Microscope Zeiss/Observer.Z1.
To investigate the mode of actions of K4R2Nal2-S1 peptide on human cancer cell line (PC9) and human fibroblast (HFW), cells were treated with FITC-labeled K4R2-Nal2-S1. Nucleus was labeled with DAPI, and the blue signal was observed by UV exciting light. The fluorescence distribution of FITC-labeled K4R2-Nal2-S1 peptide on cell membrane was visualized by the inverted fluorescent microscope.

[3] = tested on: caspase 3 in PC9; test: Western blot for activated caspase 3, PC9; assay type: cell-based, human; details: 12 μM
Procedure: PC9 cells were seeded in 10-cm polystyrene dishes for 48 hours. About seventy percent full of cells were treated with 12 μM K4R2Nal2S1 for 10 minutes, 1 hour or 24 hours. RPMI medium without peptide treated for 24 hours which was used as negative control.
Cells were collected by 200 μl RIPA and protease inhibitor blended buffer. After sonication and centrifugation for 10 minutes, 13000 rpm at 4° C., supernatants (lysis of cell) were collected. Protein concentrations of cell extracts were determined by Bradford reagent. Equal amount of boiled lysates (total 50 μg) were separated on 10% acrylamide gel. The gel was transferred to PVDF membrane in electro-blot system, 300 V, […], and 80 minutes.
The membrane was incubated in blocking buffer (5% skim milk, TBST buffer) for 1 hour at room temperature and washed in TBST buffer twice. Blocked membrane was incubated with Caspase-3 antibody (EPITOMICS, clone ID: E83-77) overnight at 4° C., washed for five times, and then incubated in secondary antibody (HRP, GeneTex catalogue number: GTX21311-01) for 1 hour at room temperature. The signals were visualized by enhanced chemiluminescence (ECL) and recorded by a detected system (ImageQuant LAS 4000 mini).

[4] = tested on: HaCaT cells; test: Cell migration assay (in vitro wound healing assay); assay type: cell-based; details: different concentrations of peptide; 12 and 24 h
Procedure: HaCaT cells (40,000) suspended in DMEM medium supplemented with 10% fetal bovine serum were seeded on each side of an ibidi culture insert (ibidi, Germany). Inserts were placed into 24-well plate. After incubated at 37° C. and 5% CO2 overnight, inserts were removed and 1 ml of serum-free DMEM medium supplemented with different concentrations of peptide was added. Medium without peptide and with 100 ng/ml EGF (epidermal growth factor) were negative and positive controls. At 0, 12 and 24 h, the images of injury area were observed using the Inverted Fluorescent Microscope Zeiss/Observer.Z1 (10×). Wound area was estimated by Adobe Photoshop. The repairing rate was calculated: repairing rate=(areat0−areat12,24)/areat0, wherein t represents time.

CC(=O)N[C@@H](CCCCN)C(=O)N[C@@H](CCCCN)C(=O)N[C@@H](CCCCN)C(=O)N[C@@H](CCCCN)C(=O)N[C@@H](CCCNC(=N)N)C(=O)N[C@@H](CCCNC(=N)N)C(=O)N[C@@H](Cc1ccc2ccccc2c1)C(=O)N[C@@H](Cc1ccc2ccccc2c1)C(=O)N[C@@H](CCCCN)C(=O)N[C@@H](CCCCN)C(=O)N[C@@H](Cc1c[nH]c2ccccc12)C(=O)N[C@@H](CCCNC(=N)N)C(=O)N[C@@H](CCCCN)C(=O)N[C@@H](Cc1c[nH]c2ccccc12)C(=O)N[C@@H](CC(C)C)C(=O)N[C@@H](C)C(=O)N[C@@H](CCCCN)C(=O)N[C@@H](CCCCN)C(N)=O [K4R2-Nal2-S1, Ac-KKKKRR-Nal-Nal-KKWRKWLAKK-NH2] (Ac-KKKKRR[2Nal][2Nal]KKWRKWLAKK-NH2)
degrees of cytotoxicities to HFW (rank order) [1]: S1 peptide<K4R2-Nal2-S1 peptide<K6-Nal2-S1 peptide<Nal2-S1 peptide
cellular swelling (phase-contrast microscopy) [2]: induced cellular swelling
caspase 3 activation (immunoblotting) [3]: activated caspase 3
wound healing (repairing rate) compared to negative control [4]: better effects of wound healing
